Source: patent US10202389B2, “Pyrazolopyrimidinyl inhibitors of ubiquitin-activating enzyme” (Millennium Pharmaceuticals, Inc., priority 2012, dated 2019)

Target: recombinant human UAE (Homo sapiens (Human), UniProt P22314)
Experiment: Ubiquitin Activating Enzyme (UAE) HTRF Assay
Settings: read-out: % inhibition @0.111 μM
Experimental: After incubation for 120 minutes, quantification of the FRET is performed on the Pherostar (BMG).
For compounds whose values are marked with an asterisk (*), mouse UAE was used. For all other compounds, human UAE was used.

Chain of recombinant human UAE (P22314 whole entry): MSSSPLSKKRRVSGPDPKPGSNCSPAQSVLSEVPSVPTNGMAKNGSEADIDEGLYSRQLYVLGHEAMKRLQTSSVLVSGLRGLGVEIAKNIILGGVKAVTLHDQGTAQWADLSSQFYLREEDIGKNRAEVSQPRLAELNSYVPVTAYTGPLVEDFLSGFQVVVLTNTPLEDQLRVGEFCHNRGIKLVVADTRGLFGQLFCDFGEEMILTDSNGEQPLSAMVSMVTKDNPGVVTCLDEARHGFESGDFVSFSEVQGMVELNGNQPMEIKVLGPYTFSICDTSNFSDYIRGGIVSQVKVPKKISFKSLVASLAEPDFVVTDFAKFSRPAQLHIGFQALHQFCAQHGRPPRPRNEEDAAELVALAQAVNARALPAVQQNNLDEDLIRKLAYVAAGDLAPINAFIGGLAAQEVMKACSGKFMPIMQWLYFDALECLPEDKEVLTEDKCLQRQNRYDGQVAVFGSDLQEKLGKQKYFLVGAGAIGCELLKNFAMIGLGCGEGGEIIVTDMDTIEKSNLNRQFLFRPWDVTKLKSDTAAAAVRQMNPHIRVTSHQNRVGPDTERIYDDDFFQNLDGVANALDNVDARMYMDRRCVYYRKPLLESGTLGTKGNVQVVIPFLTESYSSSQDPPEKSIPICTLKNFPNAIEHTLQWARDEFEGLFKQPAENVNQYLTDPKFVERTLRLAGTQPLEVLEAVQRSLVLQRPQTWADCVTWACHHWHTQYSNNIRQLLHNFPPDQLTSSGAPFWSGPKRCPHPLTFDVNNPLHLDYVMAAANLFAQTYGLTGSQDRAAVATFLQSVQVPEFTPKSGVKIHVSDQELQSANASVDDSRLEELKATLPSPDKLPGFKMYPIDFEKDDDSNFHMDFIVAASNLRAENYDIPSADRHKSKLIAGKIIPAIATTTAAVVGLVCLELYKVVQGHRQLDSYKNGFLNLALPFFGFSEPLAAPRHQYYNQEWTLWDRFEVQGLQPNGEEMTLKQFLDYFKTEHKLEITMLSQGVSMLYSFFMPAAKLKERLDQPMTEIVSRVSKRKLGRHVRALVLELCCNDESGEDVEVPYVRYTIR

| inhibition at 0.111 µM [%] | SMILES |
| --- | --- |
| 97 | NS(=O)(=O)OC[C@H]1C[C@@H](Nc2ccnc3cc(-c4cc5ccc(Cl)cc5s4)nn23)[C@H](O)[C@@H]1O (relative stereo) [Compound I-088, (rac)-((1R,2R,3S,4R)-4-(2-(6-chlorobenzo[b]thiophen-2-yl)pyrazolo[1,5-a]pyrimidin-7-ylamino)-2,3-dihydroxycyclopentyl)methyl rel-sulfamate] |
| 100 | COc1ccc(-c2cc3nccc(N[C@@H]4C[C@H](COS(N)(=O)=O)[C@@H](O)[C@H]4O)n3n2)c2ccccc12 [Compound I-106, (s.e.)-((1R,2R,3S,4R)-2,3-dihydroxy-4-(2-(4-methoxynaphthalen-1-yl)pyrazolo[1,5-a]pyrimidin-7-ylamino)cyclopentyl)methyl sulfamate] |
| 100 | COc1ccc2ccccc2c1-c1cc2nccc(N[C@@H]3C[C@H](COS(N)(=O)=O)[C@@H](O)[C@H]3O)n2n1 [Compound I-104, (s.e.)-((1R,2R,3S,4R)-2,3-dihydroxy-4-(2-(2-methoxynaphthalen-1-yl)pyrazolo[1,5-a]pyrimidin-7-ylamino)cyclopentyl)methyl sulfamate] |
| 100 | NS(=O)(=O)OC[C@H]1C[C@@H](Nc2ccnc3cc(-c4cccc5[nH]ccc45)nn23)[C@H](O)[C@@H]1O (relative stereo) [Compound I-075, (rac)-((1R,2R,3S,4R)-4-(2-(1H-indol-4-yl)pyrazolo[1,5-a]pyrimidin-7-ylamino)-2,3-dihydroxycyclopentyl)methyl rel-sulfamate] |
| 100 | COC(C)(C)c1cccc(-c2cc3nccc(N[C@@H]4C[C@H](COS(N)(=O)=O)[C@@H](O)[C@H]4O)n3n2)c1 (relative stereo) [Compound I-082, (rac)-((1R,2R,3S,4R)-2,3-dihydroxy-4-(2-(3-(2-methoxypropan-2-yl)phenyl)pyrazolo[1,5-a]pyrimidin-7-ylamino)cyclopentyl)methyl rel-sulfamate] |
| 100 | Cc1ccc(-c2cc3nccc(N[C@@H]4C[C@H](COS(N)(=O)=O)[C@@H](O)[C@H]4O)n3n2)c2ccccc12 [Compound I-115, (s.e.)-((1R,2R,3S,4R)-2,3-dihydroxy-4-(2-(4-methylnaphthalen-1-yl)pyrazolo[1,5-a]pyrimidin-7-ylamino)cyclopentyl)methyl sulfamate] |
| 100 | CC(C)Oc1ccc2ccccc2c1-c1cc2nccc(N[C@@H]3C[C@H](COS(N)(=O)=O)[C@@H](O)[C@H]3O)n2n1 [Compound I-109, (s.e.)-((1R,2R,3S,4R)-2,3-dihydroxy-4-(2-(2-isopropoxynaphthalen-1-yl)pyrazolo[1,5-a]pyrimidin-7-ylamino)cyclopentyl)methyl sulfamate] |
| 100 | NS(=O)(=O)OC[C@H]1C[C@@H](Nc2ccnc3cc(-c4cccc(N5CCOCC5)c4)nn23)[C@H](O)[C@@H]1O (relative stereo) [Compound I-078, (rac)-((1R,2R,3S,4R)-2,3-dihydroxy-4-(2-(3-morpholinophenyl)pyrazolo[1,5-a]pyrimidin-7-ylamino)cyclopentyl)methyl rel-sulfamate] |

The remaining lines, values behind:

| SMILES | inhibition at 0.111 µM [%] |
| --- | --- |
| NS(=O)(=O)OC[C@H]1C[C@@H](Nc2cc(Cl)nc3cc(-c4cccc5ccccc45)nn23)[C@H](O)[C@@H]1O (relative stereo) [Compound I-009, (rac)-((1R,2R,3S,4R)-4-{[5-chloro-2-(1-naphthyl)pyrazolo[1,5-a]pyrimidin-7-yl]amino}-2,3-dihydroxycyclopentyl)methyl rel-sulfamate] | 42 |
| COc1ccc(C(F)(F)F)cc1-c1cc2nccc(N[C@@H]3C[C@H](COS(N)(=O)=O)[C@@H](O)[C@H]3O)n2n1 (relative stereo) [Compound I-065, (rac)-((1R,2R,3S,4R)-2,3-Dihydroxy-4-((2-(2-methoxy-5-(trifluoromethyl)phenyl)-pyrazolo[1,5-a]pyrimidin-7-yl)amino)cyclopentyl)methyl rel-sulfamate] | 100 |
| NS(=O)(=O)OC[C@H]1C[C@@H](Nc2ccnc3cc(-c4cccc(Br)c4)nn23)[C@H](O)[C@@H]1O (relative stereo) [Compound I-028, (rac)-((1R,2R,3S,4R)-4-((2-(3-Bromophenyl)pyrazolo[1,5-a]pyrimidin-7-yl)amino)-2,3-dihydroxycyclopentyl)methyl rel-sulfamate] | 99 |
| NS(=O)(=O)OC[C@H]1C[C@@H](Nc2ccnc3cc(-c4cc5ccccc5[nH]4)nn23)[C@H](O)[C@@H]1O (relative stereo) [Compound I-024, (rac)-((1R,2R,3S,4R)-4-(2-(1H-indol-2-yl)pyrazolo[1,5-a]pyrimidin-7-ylamino)-2,3-dihydroxycyclopentyl)methyl rel-sulfamate] | 98 |
| CC1(C)COc2c(-c3cc4nccc(N[C@@H]5C[C@H](COS(N)(=O)=O)[C@@H](O)[C@H]5O)n4n3)cccc21 (relative stereo) [Compound I-023, (rac)-((1R,2R,3S,4R)-4-(2-(3,3-dimethyl-2,3-dihydrobenzofuran-7-yl)pyrazolo[1,5-a]pyrimidin-7-ylamino)-2,3-dihydroxycyclopentyl)methyl rel-sulfamate] | 96 |
| COc1ccc(OC(F)(F)F)cc1-c1cc2nccc(N[C@@H]3C[C@H](COS(N)(=O)=O)[C@@H](O)[C@H]3O)n2n1 (relative stereo) [Compound I-066, (rac)-((1R,2R,3S,4R)-2,3-Dihydroxy-4-((2-(2-methoxy-5-(trifluoromethoxy)-phenyl)pyrazolo[1,5-a]pyrimidin-7-yl)amino)cyclopentyl)methyl rel-sulfamate] | 100 |
| NS(=O)(=O)OC[C@H]1C[C@@H](Nc2ccnc3cc(-c4cccc5sccc45)nn23)[C@H](O)[C@@H]1O (relative stereo) [Compound I-061, (rac)-((1R,2R,3S,4R)-4-((2-(Benzo[b]thiophen-4-yl)pyrazolo[1,5-a]pyrimidin-7-yl)amino)-2,3-dihydroxycyclopentyl)methyl rel-sulfamate] | 100 |
| COc1ccc(-c2cc3nc(Cl)cc(N[C@@H]4C[C@H](COS(N)(=O)=O)[C@@H](O)[C@H]4O)n3n2)cc1 (relative stereo) [Compound I-014, (rac)-[(1R,2R,3S,4R)-4-{[5-chloro-2-(4-methoxyphenyl)pyrazolo[1,5-a]pyrimidin-7-yl]amino}-2,3-dihydroxycyclopentyl]methyl rel-sulfamate] | 30 |
| Cc1ccc(Cl)cc1-c1cc2nccc(N[C@@H]3C[C@H](COS(N)(=O)=O)[C@@H](O)[C@H]3O)n2n1 (relative stereo) [Compound I-021, (rac)-((1R,2R,3S,4R)-4-(2-(5-chloro-2-methylphenyl)pyrazolo[1,5-a]pyrimidin-7-ylamino)-2,3-dihydroxycyclopentyl)methyl rel-sulfamate] | 97 |
| NS(=O)(=O)OC[C@H]1C[C@@H](Nc2ccnc3cc(-c4c[nH]c5ccc(Cl)cc45)nn23)[C@H](O)[C@@H]1O (relative stereo) [Compound I-054, (rac)-[(1R,2R,3S,4R)-4-{[2-(5-chloro-1H-indol-3-yl)pyrazolo[1,5-a]pyrimidin-7-yl]amino}-2,3-dihydroxycyclopentyl]methyl rel-sulfamate] | 100 |
| NS(=O)(=O)OC[C@H]1C[C@@H](Nc2ccnc3cc(-c4cccc5cnccc45)nn23)[C@H](O)[C@@H]1O (relative stereo) [Compound I-027, (rac)-((1R,2R,3S,4R)-2,3-dihydroxy-4-(2-(isoquinolin-5-yl)pyrazolo[1,5-a]pyrimidin-7-ylamino)cyclopentyl)methyl rel-sulfamate] | 100 |
| NS(=O)(=O)OC[C@H]1C[C@@H](Nc2ccnc3cc(-c4cccc(C(F)(F)F)c4)nn23)[C@H](O)[C@@H]1O (relative stereo) [Compound I-007, (rac)-((1R,2R,3S,4R)-2,3-Dihydroxy-4-((2-(3-(trifluoromethyl)phenyl)pyrazolo[1,5-a]pyrimidin-7-yl)amino)cyclopentyl)methyl rel-sulfamate] | 99 |
| NS(=O)(=O)OC[C@H]1C[C@@H](Nc2ccnc3cc(-c4ccc5ccccc5c4)nn23)[C@H](O)[C@@H]1O (relative stereo) [Compound I-016, (rac)-((1R,2R,3S,4R)-2,3-dihydroxy-4-(2-(naphthalen-2-yl)pyrazolo[1,5-a]pyrimidin-7-ylamino)cyclopentyl)methyl rel-sulfamate] | 99 |
| NS(=O)(=O)OC[C@H]1C[C@@H](Nc2ccnc3cc(-c4csc5ccccc45)nn23)[C@H](O)[C@@H]1O (relative stereo) [Compound I-022, (rac)-((1R,2R,3S,4R)-4-(2-(benzo[b]thiophen-3-yl)pyrazolo[1,5-a]pyrimidin-7-ylamino)-2,3-dihydroxycyclopentyl)methyl rel-sulfamate] | 100 |
| NS(=O)(=O)OC[C@H]1C[C@@H](Nc2ccnc3cc(-c4cccc(Cc5ccccc5)c4)nn23)[C@H](O)[C@@H]1O (relative stereo) [Compound I-069, (rac)-((1R,2R,3S,4R)-4-(2-(3-benzylphenyl)pyrazolo[1,5-a]pyrimidin-7-ylamino)-2,3-dihydroxycyclopentyl)methyl rel-sulfamate] | 84 |
| NS(=O)(=O)OC[C@H]1C[C@@H](Nc2ccnc3cc(-c4cccc(C(=O)c5ccccc5)c4)nn23)[C@H](O)[C@@H]1O (relative stereo) [Compound I-073, (rac)-((1R,2R,3S,4R)-4-(2-(3-benzoylphenyl)pyrazolo[1,5-a]pyrimidin-7-ylamino)-2,3-dihydroxycyclopentyl)methyl rel-sulfamate] | 91 |
| NS(=O)(=O)OC[C@H]1C[C@@H](Nc2ccnc3cc(-c4ccc(C(F)(F)F)s4)nn23)[C@H](O)[C@@H]1O (relative stereo) [Compound I-060, (rac)-((1R,2R,3S,4R)-2,3-Dihydroxy-4-((2-(5-(trifluoromethyl)thiophen-2-yl)pyrazolo[1,5-a]pyrimidin-7-yl)amino)cyclopentyl)methyl rel-sulfamate] | 89 |
